Experimental data taken from patent US20210382058A1, “PATIENT SELECTION FOR TREATMENT OF MYC POSITIVE CANCERS WITH INDENOISOQUINOLINES” (Purdue Research Foundation, priority 2020, published 2021).
Like-named read-outs stand apart in the source and are kept apart here.

Experiments:
[1] = test system: MYC protein expression in MCF-7 breast cancer cells; assay: Western blotting of MYC protein level in MCF-7 cells; format: cell-based, human; settings: Homo sapiens, MCF7; western blotting, MCF-7 cells, 0.5, 1, 2, and 4 μM, 24 hours; read-out: MYC Inhibition
Method in brief: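 MCF-7 cells were exposed to compounds at 0.5, 1, 2 and 4 μM for 24 hours at 37° C. MYC was detected by immunoblot with ECL, using rabbit anti-MYC (1:1000) and anti-GAPDH (1:2000) as loading control.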

NCI-60 cancer cell lines = assay: NCI-60 cancer cell line drug screen (GI50, MGM); format: cell-based, human; settings: Homo sapiens; for GI50: read-out: Antiproliferative Activities [GI50 (μM)]
Procedure: Cancer cells were incubated with the test compounds at five concentrations ranging from 100 μM to 10 nM for 48 h. […] The approximate average of GI50 values across the entire panel of NCI-60 cancer cell lines for each compound was recorded as the MGM value.

human topoisomerase I = target: T1, human topoisomerase I (Homo sapiens, UniProt P11387); settings: relative topoisomerase I inhibition levels, previously determined, six levels (0 - 5, +++++ = 5); cited from earlier work
T1 sequence (P11387 1-765): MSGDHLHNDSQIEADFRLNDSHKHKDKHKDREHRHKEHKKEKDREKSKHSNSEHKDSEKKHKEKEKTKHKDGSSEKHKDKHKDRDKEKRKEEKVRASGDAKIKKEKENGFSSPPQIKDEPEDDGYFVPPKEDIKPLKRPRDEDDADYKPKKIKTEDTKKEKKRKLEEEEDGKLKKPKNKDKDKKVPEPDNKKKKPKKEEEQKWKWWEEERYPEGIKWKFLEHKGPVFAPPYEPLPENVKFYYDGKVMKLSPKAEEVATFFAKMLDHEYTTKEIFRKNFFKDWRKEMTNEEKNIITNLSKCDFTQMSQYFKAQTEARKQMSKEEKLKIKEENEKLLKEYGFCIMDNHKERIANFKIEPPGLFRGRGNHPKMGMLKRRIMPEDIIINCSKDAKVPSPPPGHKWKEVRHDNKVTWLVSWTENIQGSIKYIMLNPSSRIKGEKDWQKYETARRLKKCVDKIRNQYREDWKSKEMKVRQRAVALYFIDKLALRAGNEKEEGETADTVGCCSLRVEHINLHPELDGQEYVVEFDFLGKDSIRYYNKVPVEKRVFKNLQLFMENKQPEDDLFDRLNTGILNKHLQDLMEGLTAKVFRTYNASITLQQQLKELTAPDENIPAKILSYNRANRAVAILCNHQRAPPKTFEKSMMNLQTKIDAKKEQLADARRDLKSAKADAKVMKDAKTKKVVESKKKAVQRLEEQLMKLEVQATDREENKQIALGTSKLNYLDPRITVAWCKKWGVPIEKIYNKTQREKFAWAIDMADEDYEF

In the case of `CN(C)CCCn1c2c(c3ccc(N4CCNCC4)cc3c1=O)C(=O)c1ccccc1-2` [Compound 25], the minimal effective concentration [1] is reported as > 4 µM, the GI50 (NCI-60 cancer cell lines; 786-0, Renal Cancer, 786-0) is reported as 1.34 µM and the GI50 (NCI-60 cancer cell lines; A549, Non-Small Cell Lung Cancer, A549/ATCC) is reported as 0.22 µM. For the same molecule, the GI50 (NCI-60 cancer cell lines; ACHN, Renal Cancer, ACHN) was 0.39 µM, the GI50 (NCI-60 cancer cell lines; BT-549, Breast Cancer, BT-549) was 1.27 µM and the GI50 (NCI-60 cancer cell lines; CAKI-1, Renal Cancer, CAKI-1) was 1.05 µM. The GI50 (NCI-60 cancer cell lines; CCRF-CEM, Leukemia, CCRF-CEM) was 0.34 µM, the GI50 (NCI-60 cancer cell lines; COLO 205, Colon Cancer, COLO 205) was 0.62 µM and the GI50 (NCI-60 cancer cell lines; DU-145, Prostate Cancer, DU-145) was 0.33 µM. The GI50 (NCI-60 cancer cell lines; EKVX, Non-Small Cell Lung Cancer, EKVX) was 1.18 µM, the GI50 (NCI-60 cancer cell lines; HCC 2998, Colon Cancer, HCC-2998) was 0.35 µM and the GI50 (NCI-60 cancer cell lines; HCT-15, Colon Cancer, HCT-15) was 0.73 µM. The GI50 (NCI-60 cancer cell lines; HL-60, Leukemia, HL-60(TB)) was 1.17 µM, the GI50 (NCI-60 cancer cell lines; HOP-62, Non-Small Cell Lung Cancer, HOP-62) was 1.06 µM and the GI50 (NCI-60 cancer cell lines; HOP-92, Non-Small Cell Lung Cancer, HOP-92) was 1.72 µM. It also gave a GI50 (NCI-60 cancer cell lines; HT-29, Colon Cancer, HT29) of 0.35 µM, a GI50 (NCI-60 cancer cell lines; Hs-578T, Breast Cancer, HS 578T) of 1.44 µM and a GI50 (NCI-60 cancer cell lines; IGROV-1, Ovarian Cancer, IGROV1) of 0.84 µM. It also gave a GI50 (NCI-60 cancer cell lines; K562, Leukemia, K-562) of 0.83 µM, a GI50 (NCI-60 cancer cell lines; KM12, Colon Cancer, KM12) of 1.13 µM and a GI50 (NCI-60 cancer cell lines; LOX IMVI, Melanoma, LOX IMVI) of 0.15 µM. For the same molecule, the GI50 (NCI-60 cancer cell lines; Leukemia, SR) was 0.31 µM, the GI50 (NCI-60 cancer cell lines; MCF7, Breast Cancer, MCF7) was 0.3 µM and the GI50 (NCI-60 cancer cell lines; MDA-MB-231, Breast Cancer, MDA-MB-231/ATCC) was 0.51 µM. It also gave a GI50 (NCI-60 cancer cell lines; MDA-MB-435, Melanoma, MDA-MB-435) of 1.2 µM, a GI50 (NCI-60 cancer cell lines; MDA-MB-468, Breast Cancer, MDA-MB-468) of 0.95 µM and a GI50 (NCI-60 cancer cell lines; MOLT-4, Leukemia, MOLT-4) of 0.1 µM. It also gave a GI50 (NCI-60 cancer cell lines; Malme-3M, Melanoma, MALME-3M) of 1.42 µM, a GI50 (NCI-60 cancer cell lines; Melanoma, M14) of 1.05 µM and a GI50 (NCI-60 cancer cell lines; NCI-H23, Non-Small Cell Lung Cancer, NCI-H23) of 1.05 µM. The GI50 (NCI-60 cancer cell lines; NCI-H226, Non-Small Cell Lung Cancer, NCI-H226) was 0.56 µM, the GI50 (NCI-60 cancer cell lines; NCI-H322M, Non-Small Cell Lung Cancer, NCI-H322M) was 0.45 µM and the GI50 (NCI-60 cancer cell lines; NCI-H460, Non-Small Cell Lung Cancer, NCI-H460) was 0.31 µM. The GI50 (NCI-60 cancer cell lines; NCI-H522, Non-Small Cell Lung Cancer, NCI-H522) was 0.96 µM, the GI50 (NCI-60 cancer cell lines; OVCAR-3, Ovarian Cancer, OVCAR-3) was 1.05 µM and the GI50 (NCI-60 cancer cell lines; OVCAR-4, Ovarian Cancer, OVCAR-4) was 0.34 µM. For the same molecule, the GI50 (NCI-60 cancer cell lines; OVCAR-5, Ovarian Cancer, OVCAR-5) was 2.12 µM, the GI50 (NCI-60 cancer cell lines; OVCAR-8, Ovarian Cancer, OVCAR-8) was 0.4 µM and the GI50 (NCI-60 cancer cell lines; Ovarian Cancer, NCl/ADR-RES) was 1.16 µM. For the same molecule, the GI50 (NCI-60 cancer cell lines; Prostate Cancer, PC-3) was 0.86 µM, the GI50 (NCI-60 cancer cell lines; RPMI-8226, Leukemia, RPMI-8226) was 0.27 µM and the GI50 (NCI-60 cancer cell lines; RXF 393, Renal Cancer, RXF 393) was 1.29 µM. The GI50 (NCI-60 cancer cell lines; Renal Cancer, U0-31) was 0.77 µM, the GI50 (NCI-60 cancer cell lines; SF-268, CNS Cancer, SF-268) was 0.95 µM and the GI50 (NCI-60 cancer cell lines; SF-295, CNS Cancer, SF-295) was 1.16 µM. The GI50 (NCI-60 cancer cell lines; SF-539, CNS Cancer, SF-539) was 1.61 µM, the GI50 (NCI-60 cancer cell lines; SK-MEL-2, Melanoma, SK-MEL-2) was 1.71 µM and the GI50 (NCI-60 cancer cell lines; SK-MEL-5, Melanoma, SK-MEL-5) was 0.7 µM. It also gave a GI50 (NCI-60 cancer cell lines; SK-MEL-28, Melanoma, SK-MEL-28) of 1.53 µM, a GI50 (NCI-60 cancer cell lines; SK-OV-3, Ovarian Cancer, SK-OV-3) of 1.05 µM and a GI50 (NCI-60 cancer cell lines; SN12C, Renal Cancer, SN12C) of 0.33 µM. The GI50 (NCI-60 cancer cell lines; SNB-19, CNS Cancer, SNB-19) was 0.54 µM, the GI50 (NCI-60 cancer cell lines; SNB-75, CNS Cancer, SNB-75) was 0.95 µM and the GI50 (NCI-60 cancer cell lines; SW-620, Colon Cancer, SW-620) was 0.16 µM. For the same molecule, the GI50 (NCI-60 cancer cell lines; T47D, Breast Cancer, T-47D) was 1.55 µM, the GI50 (NCI-60 cancer cell lines; TK-10, Renal Cancer, TK-10) was 1.33 µM and the GI50 (NCI-60 cancer cell lines; U-251, CNS Cancer, U251) was 0.64 µM. It also gave a GI50 (NCI-60 cancer cell lines; UACC-62, Melanoma, UACC-62) of 1.03 µM, a GI50 (NCI-60 cancer cell lines; UACC-257, Melanoma, UACC-257) of 1.69 µM and a mean GI50 across NCI-60 panel (MGM) (NCI-60 cancer cell lines; average of GI50 values across the entire panel of NCI-60 cancer cell lines) of 720 nM. The “Top1 Inhibiton” value (human topoisomerase I) was “++ (medium inhibition, ++, MYC expression inhibited at 2.0 μM, or no clear dose-dependent MYC inhibition)”.
